Measurements: patent publication US10131679B2, “Substituted dihydropyrrolopyrazole compound” (UBE INDUSTRIES, LTD., priority 2014, dated 2018)

What was measured:
CDK2 = molecular target: T1, CDK2 (Homo sapiens, UniProt P24941); experiment: CDK2 enzyme inhibition test; format: biochemical; settings: Ki=IC50/(1+S/Km); 33P bound to MBP, [γ-33P]ATP, 30° C. for 20 minutes; read-out: Ki value of CDK2 inhibitory activity
T1 construct: purchased Invitrogen Corp. PV3267
Summary of the method: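 Commercial CDK2 with MBP substrate and [γ-33P]ATP (500 μM solution, before mixing) in HEPES pH 7.4 buffer with DTT, Triton X-100 and MgCl2; 20 min at 30 °C. TCA-precipitated 33P-MBP counted by liquid scintillation; IC50 from inhibition of 33P incorporation, Ki = IC50/(1+S/Km).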

PAK4 = molecular target: T2, PAK4 (Homo sapiens, UniProt O96013); experiment: PAK4 enzyme inhibition test; format: biochemical; settings: Ki=IC50/(1+S/Km); 33P bound to MBP, [γ-33P]ATP, 30° C. for 20 minutes; read-out: Ki value of PAK4 inhibitory activity
T2 construct: purchased Invitrogen Corp. PV4212
Summary of the method: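 Radiometric assay: PAK4 with MBP substrate and 40 μM [γ-^33P]ATP solution in Tris pH 7.5 buffer with MgCl2, DTT, EGTA, reacted 20 min at 30 °C. TCA-precipitated, washed ^33P-MBP counted by scintillation. IC50 from inhibition of ^33P incorporation; Ki = IC50/(1+S/Km).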

[1] = tested on: mouse imiquimod-induced psoriasis model; experiment: Ear thickening suppression test using mouse imiquimod-induced psoriasis model; format: in vivo; settings: topical, 120 h, thickness measured on day 5, BALB/c mice, read-out: rate of inhibition of increase in right auricle thickness; for inhibition in vivo at 1 %: application of a 1% solution in methanol for 4 days
Summary of the method: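 Female BALB/c mice received test compound topically or orally, then 5 mg imiquimod cream (5%) on the right auricle 60 minutes later, daily for 4 days. Ear thickness was measured on day 5. Inhibition (%) of thickening was calculated relative to the solvent group, taken as 100%.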

T2 sequence (O96013 whole entry): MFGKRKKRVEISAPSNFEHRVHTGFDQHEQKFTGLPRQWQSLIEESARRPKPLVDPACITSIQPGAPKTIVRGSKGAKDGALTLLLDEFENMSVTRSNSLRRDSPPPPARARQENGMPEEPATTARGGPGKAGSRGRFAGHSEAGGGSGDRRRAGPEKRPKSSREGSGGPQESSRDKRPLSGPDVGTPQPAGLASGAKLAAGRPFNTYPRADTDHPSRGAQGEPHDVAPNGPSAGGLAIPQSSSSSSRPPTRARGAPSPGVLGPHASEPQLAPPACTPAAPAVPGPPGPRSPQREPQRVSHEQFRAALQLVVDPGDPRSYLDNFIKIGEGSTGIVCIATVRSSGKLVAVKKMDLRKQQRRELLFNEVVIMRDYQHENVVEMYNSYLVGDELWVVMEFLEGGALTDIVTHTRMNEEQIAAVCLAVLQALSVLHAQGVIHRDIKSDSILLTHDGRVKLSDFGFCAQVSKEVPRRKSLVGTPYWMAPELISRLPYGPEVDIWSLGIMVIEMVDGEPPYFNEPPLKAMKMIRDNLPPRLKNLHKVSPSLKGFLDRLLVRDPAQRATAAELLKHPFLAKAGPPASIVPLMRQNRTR

| Ki (CDK2) [nM] | Ki (PAK4) [nM] | SMILES | inhibition in vivo at 1 % [1] [%] | inhibition in vivo at 0.01 % ([1]; application of a 0.01% methanol solution for 4 days) [%] |
| --- | --- | --- | --- | --- |
| ≥ 1000 | ≥ 500 | CC1(C)c2[nH]nc(NC(=O)C3([Si](C)(C)C)CCC3)c2CN1C(=O)N[C@H](CCO)c1ccccc1 [IV-227, (R)—N-(3-Hydroxy-1-phenylpropyl)-6,6-dimethyl-3-[1-(trimethylsilyl)cyclobutanecarboxamido]-4,6-dihydropyrrolo[3,4-c]pyrazole-5(1H)-carboxamide] | ≥ 50 | – |
| ≥ 1000 | ≥ 500 | CC1(C)c2[nH]nc(NC(=O)C3([Si](C)(C)C)CCC3)c2CN1C(=O)N[C@H](CO)c1ccccc1 [IV-114, (S)—N-(2-Hydroxy-1-phenylethyl)-6,6-dimethyl-3-[1-(trimethylsilyl)cyclobutanecarboxamido]-4,6-dihydropyrrolo[3,4-c]pyrazole-5(1H)-carboxamide] | ≥ 50 | – |
| ≥ 1000 | ≥ 500 | COC[C@@H](NC(=O)N1Cc2c(NC(=O)C3([Si](C)(C)C)CCC3)n[nH]c2C1(C)C)c1ccccc1 [IV-123, (S)—N-(2-Methoxy-1-phenylethyl)-6,6-dimethyl-3-[1-(trimethylsilyl)cyclobutanecarboxamido]-4,6-dihydropyrrolo[3,4-c]pyrazole-5(1H)-carboxamide] | ≥ 50 | – |

| SMILES | Ki (CDK2) [nM] | Ki (PAK4) [nM] | inhibition in vivo at 1 % [1] [%] | inhibition in vivo at 0.01 % ([1]; application of a 0.01% methanol solution for 4 days) [%] |
| --- | --- | --- | --- | --- |
| CC1(C)c2[nH]nc(NC(=O)C3([Si](C)(C)C)CCC3)c2CN1C(=O)[C@H](OC(F)(F)F)c1ccccc1 [IV-1184, (R)—N-{6,6-Dimethyl-5-[2-phenyl-2-(trifluoromethoxy)acetyl]-1,4,5,6-tetrahydropyrrolo[3,4-c]pyrazol-3-yl}-1-(trimethylsilyl)cyclobutanecarboxamide] | ≥ 1000 | ≥ 500 | – | ≥ 50 |
